What was measured:
patients with RLS = experiment: Treatment of 2 patients with RLS (therapeutic history, monotherapies and combination therapy of pramipexole and clonidine)
Description: 1. […] The clonidine was also initially prescribed in a single dose of 0.075 mg two hours before bedtime and increased by 0.075 mg at intervals of 3 days.
2. Treatment with a Combination Therapy of Clonidine and Pramipexole After slowly bringing the clonidine therapy to a complete halt and after a treatment-free period of about 1 week, both patients were treated with a combination of 0.088 mg of pramipexole and 0.075 mg of clonidine. […] After 7 days the dosage of pramipexole had been increased to 0.18 mg and the dosage of clonidine to 0.15 mg, two hours before going to sleep.

[1] = test system: Restless Legs Syndrome patients; details: cited from earlier work; for effectiveness in RLS: short-term therapy trials of dopamine agonists
[2] = clonidine monotherapy, single dose before bedtime, 0.225 mg (male) / 0.45 mg (female)

## Cc1nnc2n1-c1sc(Br)cc1C(c1ccccc1Cl)=NC2 [Brotizolam]
Patients with RLS; previous therapy, prescribed for limited time only
  falling asleep and sleeping through: improved the falling asleep and sleeping through

## NC(=O)N1c2ccccc2C=Cc2ccccc21 [Carbamazepine]
[1]; a few partly open trials
  relief from the complaint: only partial relief from the complaint

## N[C@@H](Cc1ccc(O)c(O)c1)C(=O)O [L-DOPA]
Patients with RLS; human, in vivo
  augmentation: typical augmentation during the day
[1]; in vivo
  disadvantage of therapy (loss of effectiveness, rebound, augmentation): effectiveness declines and/or there is a shift of the RLS problems to the morning (rebound) or afternoon (augmentation)
[1]; long-term therapy, with improvement in quality of life and sleep
  alleviation of the complaint: significant alleviation of the complaint

## CC(C)C[C@H]1C(=O)N2CCC[C@H]2[C@]2(O)O[C@](NC(=O)[C@@H]3C[C@@H]4c5cccc6[nH]cc(c56)C[C@H]4N(C)C3)(C(C)C)C(=O)N12 [alphadihydroergocryptine]
[1]
  effectiveness in RLS: found to be effective

## C=CCN1C[C@H](C(=O)N(CCCN(C)C)C(=O)NCC)C[C@@H]2c3cccc4[nH]cc(c34)C[C@H]21 [cabergoline]
[1]
  effectiveness in RLS: found to be effective

## Clc1cccc(Cl)c1NC1=NCCN1 [clonidine, 2-(2,6-dichloroanilino)-4,5-dihydroimidazole]
Patients with RLS; [2]
  compulsive movements: had also improved
  paresthesia: felt hardly any paresthesia
  quality of sleep and number of times they woke during the night: had not changed
[1]; 4 open trials, 2 double-blind placebo-controlled trials, single case study, daily doses 0.1-0.9 mg
  perceived symptoms such as paresthesia, compulsive movement and tiredness during the day: (statistically significant) reduction in perceived symptoms
[1]; daily doses 0.1-0.9 mg
  sleep latency (polysomnographic): shortened
[1]; polysomnographic, daily doses 0.1-0.9 mg
  quality of sleep, frequency of waking or periodic leg movements in sleep (PLMS): not affected

## CCN(CC)C(=O)N[C@H]1C=C2c3cccc4[nH]cc(c34)C[C@H]2N(C)C1 [lisuride]
[1]
  effectiveness in RLS: found to be effective

## CCCN1C[C@H](CSC)C[C@@H]2c3cccc4[nH]cc(c34)C[C@H]21 [pergolide]
Patients with RLS; previous therapy of the 2 RLS patients
  side effects preventing further dose increase: side effects such as nausea, gastrointestinal problems and dizziness
[1]
  effectiveness in RLS: found to be effective

## CCCN[C@H]1CCc2nc(N)sc2C1 [pramipexole, (S)-2-amino-6-n-propylamino-4,5,6,7-tetrahydro-benzothiazole]
Patients with RLS; pramipexole monotherapy, 0.088 mg two hours before bedtime, increased to 0.36 mg (male) / 0.27 mg (female) daily, no difference from earlier therapy
  symptoms: symptoms certainly improved
[1]
  effectiveness in RLS: found to be effective

## CCCN(CCC)CCc1cccc2c1CC(=O)N2 [ropinirol]
[1]
  effectiveness in RLS: found to be effective

## bromocryptine
[1]
  effectiveness in RLS: found to be effective

From patent publication US20020010201A1 (priority 1999, published 2002)
